Experiment: Displacement of [3H]Ro151788 from GABA-A receptor in Wistar rat cerebellar membrane after 1 hr by liquid scintillation counting
Assay type: cell membranes, Cerebellum

Ki	SMILES
0.13 nM	O=C(NCCCF)c1c[nH]c2ccc(Cc3ccccc3)cc2c1=O
1.3 nM	O=C(NCCCF)c1c[nH]c2ccc(Br)cc2c1=O
